Source: article PMC2818973 (Journal of medicinal chemistry, 2010)

Settings: mouse, in vivo, iv

SMILES: CC(=NNc1ccc(I)cn1)c1ccc2c(c1)C1C=CCC1C(c1cc3c(cc1Br)OCO3)N2 (stereo not shown) [Compound 9, N-{1-[4-(6-Bromo-benzo[1,3]dioxol-5-yl)-3a,4,5,9b-tetrahydro-3H-cyclopenta[c]quinolin-8-yl]-ethylidene}-N′-(5-iodo-pyridin-2-yl)-hydrazine]
- metabolism and clearance (in words): rapidly metabolized and eliminated via the hepatobiliary system
